Values of other authors as cited in patent US20090022786A1, “Oral pharmaceutical dosage form and manufacturing method thereof” (YUNG SHIN PHARM. IND. CO., LTD., priority 2007, published 2009).
Structures can show the parent of a compound that is named as a salt. Where two headings read alike, the source gives them in different places.

Experiments:
[1] = not given; remark: listed apart in the source
[2] = not given; remark: listed apart in the source
[3] = not given; remark: listed apart in the source
gastric acid secretion = settings: oral
[4] = as glucuronate- or sulfate-associated form

| Solubility in chloroform (chloroform) | Solubility in ethanol (ethanol) | Solubility in methanol (methanol) | Solubility in water | Fraction eliminated with the faeces after biliary secretion [2, 4] | Fraction eliminated with urine [2, 4] | Binding to plasma protein ([2]; in vivo) | Half-life ([2]; in vivo) [min] | Fraction entering systematic circulation ([2]; oral) | Peak value of plasma concentration ([2]; oral single dose of 50 mg) [µg/mL] | Time of maximum plasma concentration ([2]; oral single dose of 50 mg) [h] | Fraction eliminated with urine ([3]; in 24 hours) | Elimination half-life ([3]; in vivo) [min] | Fraction eliminated with the faeces ([3]; in vivo) [%] | Absorption after oral administration ([3]; oral) | Time of maximum plasma concentration ([3]; oral) [min] | Stability at room temperature ([1]; room temperature) | SMILES | Stability to humidity and light ([1]; humidity and light) | Time to inhibition of gastric acid secretion (gastric acid secretion) [min] |
| --- | --- | --- | --- | --- | --- | --- | --- | --- | --- | --- | --- | --- | --- | --- | --- | --- | --- | --- | --- |
| extremely insoluble | soluble | soluble | somewhat | 1/30 | ⅔ | More than 90% | 60 to 120 | 50-60% | 1.5 | 1 to 2 |  |  |  |  |  |  | O=C(O)Cc1ccccc1Nc1c(Cl)cccc1Cl [Diclofenac sodium, 2-[(2,6-dichlorophenyl)amino] benzene acetic acid, monosodium salt] | accessible to be destroyed by humidity and light |  |
|  |  |  | soluble |  |  |  |  |  |  |  | 64-73% | 20 to 40 | 15 | rapidly absorbed | 15 to 30 | very unstable | CCCCC(C)(O)C/C=C/[C@H]1[C@H](O)CC(=O)[C@@H]1CCCCCCC(=O)OC (mixture of isomers) [Misoprostol, (±) methyl 11α,16-dihydroxy-16-methyl-9-oxoprost-13E-en-1-oate] |  | ≤ 30 |
